Assay results as given in patent US20250230226A1, “PLXDC1/PLXDC2 ACTIVATORS AND THEIR USE IN THE TREATMENT OF BLOOD VESSEL DISORDERS” (THE REGENTS OF THE UNIVERSITY OF CALIFORNIA, priority 2019, published 2025).

Tested on: LL/2 lung cancer tumor endothelial cells
Assay: Lung LL2 ex vivo model of tumor angiogenesis
Assay type: cell-based, mouse
Conditions: for 48 hrs (morphology observations): LL/2 tumor endothelial cells; for Cell death: drug treatment for two days, ratio of red area to total endothelial cell area
Procedure, shortened: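 LL2 mouse tumor fragments (~0.075 mm³) embedded in Matrigel and cultured in endothelial growth medium at 37 °C until endothelial outgrowth (~4 days) before treatment. Cell death assessed e.g. 48 h after drug by fluorescein diacetate (live)/propidium iodide (dead) staining and red/green fluorescence imaging.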

[1] = Mus musculus, Endothelial cell, 48 h, read-out: Cell death

`CCCCOc1ccc(S(=O)(=O)c2cnc3ccc(C(=O)OCC)cc3c2N2CCN(c3ccc(F)cc3)CC2)cc1` [Compound 213] was tested, and the “48 hrs (morphology observations)” value (40 μm) was 0 and the cytotoxicity at 40 µM [1] was 30%.
In the case of `CCCCCCCOc1ccc(S(=O)(=O)c2cnc3ccc([S+](C)[O-])cc3c2N2CCC(N3CCC(O)(c4ccccc4)CC3)CC2)cc1` (centres unmarked) [Compound 263], the “48 hrs (morphology observations)” value (10 μm) is reported as “**** (100% of endothelial cells vesicularize in cell shape and look flattened in morphology (indicating disintegration of the cell body))”.
For `CCCCCCCOc1ccc(S(=O)(=O)c2cnc3ccc(SC)cc3c2N2CCC(N3CCN(C)CC3)CC2)cc1` [Compound 246], the “48 hrs (morphology observations)” value (20 μm) was “*** (more than 50% but less than 100% of endothelial cells vesicularize in cell shape)” and the Cell death (20 μm) was 95%.
With `COc1ccc(S(=O)(=O)c2cnc3cc(OC)c(OC)cc3c2N2CCCN(C3CCS(=O)(=O)CC3)CC2)cc1` [Compound 330] the “48 hrs (morphology observations)” value (40 μm) was “*** (more than 50% but less than 100% of endothelial cells vesicularize in cell shape)” and the Cell death (40 μm) was 50%.
With `CCCCCCCCCCOc1ccc(S(=O)(=O)c2cnc3ccc([S+](C)[O-])cc3c2N2CCC(N3CCC(N4CCCN(C)CC4)CC3)CC2)cc1` (centres unmarked) [Compound 287] the “Cell death, read at 24 hrs” value (20 μm, (24 hrs)) was 40% and the “Endothelial cell morphology score at 24 hrs” value (20 μm, (24 hrs)) was “* (50% or less of cells vesicularize in cell shape)”.
`CCCCOc1ccc(S(=O)(=O)c2cnc3ccc([S+](C)[O-])cc3c2N2CCC(N3CCOCC3)CC2)cc1` (centres unmarked) [Compound 235] was tested, and the “48 hrs (morphology observations)” value (40 μm) was 0 and the Cell death (40 μm) was 10%.
In the case of `CCCCOc1ccc(S(=O)(=O)c2cnc3ccc(S(C)(=O)=O)cc3c2N2CCC(N3CCC(O)CC3)CC2)cc1` [Compound 170], the “48 hrs (morphology observations)” value (20 μm) is reported as 0 and the Cell death (20 μm) is reported as 10%.
In the case of `CCOC(=O)c1ccc2ncc(S(=O)(=O)c3ccc(CC)cc3)c(-n3nnc4ccccc43)c2c1` [Compound 133], the Cell death (20 μm) is reported as 10%.
For `CCOC(=O)c1ccc2ncc(S(=O)(=O)c3ccc(OC)cc3)c(N3CCCN(CCN4CCCC4)CC3)c2c1` [Compound 180], the “48 hrs (morphology observations)” value (10 μm) was “*** (more than 50% but less than 100% of endothelial cells vesicularize in cell shape)” and the Cell death (10 μm) was 70%.
For `CCCCOc1ccc(S(=O)(=O)c2cnc3ccc(SC)cc3c2N2CCCN(c3nc4ccc(Cl)cc4s3)CC2)cc1` [Compound 356], the “48 hrs (morphology observations)” value (40 μm) was 0 and the cytotoxicity at 40 µM [1] was 0%.
`CCCCOc1ccc(S(=O)(=O)c2cnc3ccc(SC)cc3c2N2CCC(N3CCCC3CO)CC2)cc1` (centres unmarked) [Compound 350] was tested, and the “48 hrs (morphology observations)” value (40 μm) was 0 and the cytotoxicity at 40 µM [1] was 20%.
For `CCc1ccc(S(=O)(=O)c2cnc3ccc(OC(F)(F)F)cc3c2-n2cccc2)cc1` [Compound 108], the “48 hrs (morphology observations)” value (20 μm) was 0 and the Cell death (20 μm) was 0%.
`CCCCOc1ccc(S(=O)(=O)c2cnc3ccc(C(=O)OCC)cc3c2N2CCC(N3CCN(C)CC3)CC2)cc1` [Compound 172] was tested, and the “48 hrs (morphology observations)” value (40 μm) was “**** (100% of endothelial cells vesicularize in cell shape and look flattened in morphology (indicating disintegration of the cell body))” and the Cell death (40 μm) was 100%.
In the case of `CCCCOc1ccc(S(=O)(=O)c2cnc3ccc(SC)cc3c2N2CCC(N3CCOCC3)CC2)cc1` [Compound 229], the “48 hrs (morphology observations)” value (40 μm) is reported as 0 and the Cell death (40 μm) is reported as 30%.
`CNC(=O)c1ccc2ncc(S(=O)(=O)c3ccc(OC)cc3)c(N3CCC(N4CCCCC4)CC3)c2c1` [Compound 143] was tested, and the “48 hrs (morphology observations)” value (40 μm) was 0 and the cytotoxicity at 40 µM [1] was 40%.
For `CC(C)CCCC(C)CCOc1ccc(S(=O)(=O)c2cnc3ccc([S+](C)[O-])cc3c2N2CCC(N3CCN(CCO)CC3)CC2)cc1` (centres unmarked) [Compound 284], the “48 hrs (morphology observations)” value (10 μm) was 0 and the Cell death (10 μm) was 10%.
With `CCOC(=O)c1ccc(N2CCN(c3c(S(=O)(=O)c4ccc(OC)cc4)cnc4cc(OC)c(OC)cc34)CC2)cc1` [Compound 317] the “48 hrs (morphology observations)” value (40 μm) was 0 and the Cell death (40 μm) was 30%.
With `COc1ccc(S(=O)(=O)c2cnc3cc(OC)c(OC)cc3c2N2CCC(N3CCCCC3)CC2)cc1` [Compound 320] the “48 hrs (morphology observations)” value (40 μm) was 0 and the Cell death (40 μm) was 30%.
In the case of `CCCCCCCOc1ccc(S(=O)(=O)c2cnc3ccc(SC)cc3c2N2CCCN(CCN3CCCCC3)CC2)cc1` [Compound 248], the “48 hrs (morphology observations)” value (20 μm) is reported as “* (50% or less of cells vesicularize in cell shape)” and the Cell death (20 μm) is reported as 60%.
With `CCCCOc1ccc(S(=O)(=O)c2cnc3ccc(SC)cc3c2N2CCC(N3CCSCC3)CC2)cc1` [Compound 243] the “48 hrs (morphology observations)” value (40 μm) was 0 and the Cell death (40 μm) was 20%.
In the case of `CCCCOc1ccc(S(=O)(=O)c2cnc3ccc(C(=O)OCC)cc3c2-n2cnnn2)cc1` [Compound 186], the “48 hrs (morphology observations)” value (10 μm) is reported as “**** (100% of endothelial cells vesicularize in cell shape and look flattened in morphology (indicating disintegration of the cell body))” and the Cell death (10 μm) is reported as 90%.
`CCCCOc1ccc(S(=O)(=O)c2cnc3ccc(C(=O)OCC)cc3c2N2CCC(N3CCSCC3)CC2)cc1` [Compound 217] was tested, and the “48 hrs (morphology observations)” value (40 μm) was 0 and the Cell death (40 μm) was 30%.
For `COc1ccc(S(=O)(=O)c2cnc3cc(OC)c(OC)cc3c2N2CCCN(CC3(O)CCCC3)CC2)cc1` [Compound 325], the “48 hrs (morphology observations)” value (40 μm) was “* (50% or less of cells vesicularize in cell shape)” and the Cell death (40 μm) was 30%.
For `CCCCCCCOc1ccc(S(=O)(=O)c2cnc3ccc(SC)cc3c2N2CCN(C3CCN(C)CC3)CC2)cc1` [Compound 273], the “48 hrs (morphology observations)” value (20 μm) was “*** (more than 50% but less than 100% of endothelial cells vesicularize in cell shape)” and the cytotoxicity at 20 µM [1] was 60%.
In the case of `CCCCCCCOc1ccc(S(=O)(=O)c2cnc3ccc([S+](C)[O-])cc3c2N2CCN(C3CCN(CC)CC3)CC2)cc1` (centres unmarked) [Compound 277], the cytotoxicity at 10 µM [1] is reported as 60%.
`CCCCOc1ccc(S(=O)(=O)c2cnc3ccc(SC)cc3c2N2CCCN(C3COC3)CC2)cc1` [Compound 355] was tested, and the “48 hrs (morphology observations)” value (40 μm) was 0 and the cytotoxicity at 40 µM [1] was 0%.
For `CCCCCCCCCCOc1ccc(S(=O)(=O)c2cnc3ccc([S+](C)[O-])cc3c2N2CCCN(CCN3CCCCC3)CC2)cc1` (centres unmarked) [Compound 266], the “48 hrs (morphology observations)” value (10 μm) was 0 and the Cell death (10 μm) was 5%.
`CCN(CC)CCOc1ccc(S(=O)(=O)c2cnc3ccc(SC)cc3c2N2CCCN(C)CC2)cc1` [Compound 242] was tested, and the “48 hrs (morphology observations)” value (40 μm) was 0 and the Cell death (40 μm) was 30%.
With `O=S(=O)(c1ccc(OC(F)(F)F)cc1)c1cnc2ccc(OC(F)(F)F)cc2c1N1CCC(N2CCCCC2)CC1` [Compound 120] the “48 hrs (morphology observations)” value (20 μm) was 0 and the cytotoxicity at 20 µM [1] was 5%.
For `COc1ccc(S(=O)(=O)c2cnc3cc(OC)c(OC)cc3c2N2CCC(N3CCCC3CO)CC2)cc1` (centres unmarked) [Compound 322], the “48 hrs (morphology observations)” value (40 μm) was 0 and the Cell death (40 μm) was 30%.
`COc1ccc(S(=O)(=O)c2cnc3cc(OC)c(OC)cc3c2N2CCC(N3CCCCC3)CC2)cc1OC` [Compound 122] was tested, and the “48 hrs (morphology observations)” value (20 μm) was 0 and the Cell death (20 μm) was 10%.
With `COc1ccc(S(=O)(=O)c2cnc3ccc(SC)cc3c2NN2CCN(C)CC2)cc1` [Compound 226] the “48 hrs (morphology observations)” value (40 μm) was “* (50% or less of cells vesicularize in cell shape)” and the Cell death (40 μm) was 10%.
With `CCCCCCCCCCCCOc1ccc(S(=O)(=O)c2cnc3ccc([S+](C)[O-])cc3c2N2CCC(N3CCC(N4CCN(C)CC4)CC3)CC2)cc1` (centres unmarked) [Compound 341] the “48 hrs (morphology observations)” value (20 μm) was “*** (more than 50% but less than 100% of endothelial cells vesicularize in cell shape)” and the Cell death (20 μm) was 80%.
With `CCCCCCCCCCCCCCOc1ccc(S(=O)(=O)c2cnc3ccc([S+](C)[O-])cc3c2N2CCC(N3CCC(N4CCN(CCO)CC4)CC3)CC2)cc1F` (centres unmarked) [Compound 368] the Cell death (20 μm) was 20%.
For `CCCCOc1ccc(S(=O)(=O)c2cnc3ccc(SC)cc3c2N2CCC(N3CCC(N4CCCCC4)CC3)CC2)cc1` [Compound 231], the “48 hrs (morphology observations)” value (40 μm) was “*** (more than 50% but less than 100% of endothelial cells vesicularize in cell shape)” and the Cell death (40 μm) was 100%.
`CCCCOc1ccc(S(=O)(=O)c2cnc3ccc(SC)cc3c2N2CCC(N3CCCN(C)CC3)CC2)cc1` [Compound 234] was tested, and the “48 hrs (morphology observations)” value (40 μm) was “*** (more than 50% but less than 100% of endothelial cells vesicularize in cell shape)” and the Cell death (40 μm) was 100%.
For `CCCCCCCCCCCCOc1ccc(S(=O)(=O)c2cnc3ccc([S+](C)[O-])cc3c2N2CCC(N3CCN(CCO)CC3)CC2)cc1` (centres unmarked) [Compound 344], the “48 hrs (morphology observations)” value (20 μm) was “* (50% or less of cells vesicularize in cell shape)” and the cytotoxicity at 20 µM [1] was 10%.
In the case of `CCCCCCCCCCCCCCOc1ccc(S(=O)(=O)c2cnc3ccc([S+](C)[O-])cc3c2N2CCC(N3CCC(N4CCCCC4)CC3)CC2)cc1F` (centres unmarked) [Compound 366], the “48 hrs (morphology observations)” value (20 μm) is reported as 0 and the Cell death (20 μm) is reported as 10%.
With `COc1ccc(N2CCN(c3c(S(=O)(=O)c4ccc(OC)cc4)cnc4cc(OC)c(OC)cc34)CC2=O)cc1` [Compound 318] the “48 hrs (morphology observations)” value (40 μm) was 0 and the Cell death (40 μm) was 30%.
`CCOC(=O)c1ccc2ncc(S(=O)(=O)c3ccc(OC)cc3)c(-n3nnc4ccccc43)c2c1` [Compound 142] was tested, and the “48 hrs (morphology observations)” value (20 μm) was “**** (100% of endothelial cells vesicularize in cell shape and look flattened in morphology (indicating disintegration of the cell body))”.
With `CCOC(=O)c1ccc2ncc(S(=O)(=O)c3ccc(OC)cc3)c(-n3ccnc3)c2c1` [Compound 141] the “48 hrs (morphology observations)” value (20 μm) was “**** (100% of endothelial cells vesicularize in cell shape and look flattened in morphology (indicating disintegration of the cell body))” and the Cell death (20 μm) was 90%.
In the case of `CCCCOc1ccc(S(=O)(=O)c2cnc3ccc(SC)cc3c2N2CCCN(CC3(O)CCCC3)CC2)cc1` [Compound 354], the “48 hrs (morphology observations)” value (40 μm) is reported as 0 and the cytotoxicity at 40 µM [1] is reported as 0%.
`COc1ccc(S(=O)(=O)c2cnc3ccc([S+](C)[O-])cc3c2NN2CCN(C)CC2)cc1` (centres unmarked) [Compound 227] was tested, and the “48 hrs (morphology observations)” value (40 μm) was 0 and the Cell death (40 μm) was 10%.
With `CCCCCCCOc1ccc(S(=O)(=O)c2cnc3ccc(SC)cc3c2N2CCC(N3CCCN(C)CC3)CC2)cc1` [Compound 249] the “48 hrs (morphology observations)” value (20 μm) was “*** (more than 50% but less than 100% of endothelial cells vesicularize in cell shape)” and the Cell death (20 μm) was 60%.
